In US20120077795A1, “BIS-PYRIDYLPYRIDONES AS MELANIN-CONCENTRATING HORMONE RECEPTOR 1 ANTAGONISTS” (GLAXSMITHKLINE LLC, priority 2009, published 2012):

Biological target: T1, hMCHR1 (Homo sapiens, UniProt Q99705)
T1 construct: expressed in transfected cells; host or cells: HEK293
Assay: MCHR1 pIC50 determination FLIPR assay (calcium response to MCH challenge)
Type: cell-based
Conditions: HEK293 cells stably transfected with hMCHR1; MCH challenge at 4XEC50
Experimental: MCHR^1 pIC50 Determination FLIPR™ Assay: HEK293 cells stably transfected with hMCHR1 were propagated as adherent cultures at 37° C. in a humidified incubator. Cells were split 1:8 at 90% confluency two times per week. New cell stocks were recovered from storage every two months. Cells were plated in black 384-well plates (Greiner) 24 hours prior to assay at 15,000 cells/well in 50 μL DMEM/F12, 10% FBS, 2 mM I-glutamine. Compounds to be profiled were prepared by making a stock solution at 3×10^−3M in 100% DMSO. The stock solutions were serially diluted 1:4 in 100% DMSO using JANUS (PerkinElmer) liquid handling instrument to allow for an 11 point curve in singlicate. At the time of the assay, the media was removed from the cell plate by aspiration, followed by the addition of 20 μL of loading buffer (Calcium 4 Kit, […]). Following 50 min incubation at 37° C., 10 μL of compound was added to the plates via the FLIPR™ instrument ([…]). The plates were incubated at room temperature for 15 minutes along with an MCH peptide agonist challenge plate. […] The amount of luciferase generated was quantified in a TopCount (PerkinElmer Packard) at 19.8° C. in SPC (single photon counting) mode with a 5 second count/well and subjected to a nonlinear regression analysis curve fitting program to generate pIC50s.

T1 sequence (Q99705 whole entry): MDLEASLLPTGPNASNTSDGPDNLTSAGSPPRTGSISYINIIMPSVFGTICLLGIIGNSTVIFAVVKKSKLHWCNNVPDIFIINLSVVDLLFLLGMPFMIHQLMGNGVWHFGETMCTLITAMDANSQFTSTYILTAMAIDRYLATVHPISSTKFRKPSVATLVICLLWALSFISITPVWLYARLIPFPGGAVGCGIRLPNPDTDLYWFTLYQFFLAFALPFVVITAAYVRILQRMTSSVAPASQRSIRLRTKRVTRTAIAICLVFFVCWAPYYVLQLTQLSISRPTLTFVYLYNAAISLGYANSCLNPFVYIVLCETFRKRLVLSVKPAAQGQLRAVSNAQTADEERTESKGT

Q: How did the IC50 turn out when `CNC1C2CN(c3ccc(-n4ccc(OCc5ccc(Cl)cn5)cc4=O)cn3)CC21` (centres unmarked) [Example 14] was run?
A: 45 nM

Q: `O=c1cc(OCc2ccc(Cl)cn2)ccn1-c1ccc(N2CC3CONC3C2)nc1` (centres unmarked) [Example 16] was tested. Which IC50 did it give?
A: 56 nM
